In patent US12673933B2, “Aminopyrazine compounds as HPK1 inhibitor and the use thereof” (BEIGENE, LTD., priority 2019, dated 2026) one finds IC50 data, which are given here for 19 compounds.

In general, IC50 refers to the midpoint of a concentration-inhibition curve.

This assay concerns the target T1, HPK1 kinase (aa1-346, Life Technologies) (Homo sapiens, UniProt Q92918).
T1 construct: HPK1 kinase (aa1-346, Life Technologies); purchased Life Technologies
T1 sequence (Q92918 1-346): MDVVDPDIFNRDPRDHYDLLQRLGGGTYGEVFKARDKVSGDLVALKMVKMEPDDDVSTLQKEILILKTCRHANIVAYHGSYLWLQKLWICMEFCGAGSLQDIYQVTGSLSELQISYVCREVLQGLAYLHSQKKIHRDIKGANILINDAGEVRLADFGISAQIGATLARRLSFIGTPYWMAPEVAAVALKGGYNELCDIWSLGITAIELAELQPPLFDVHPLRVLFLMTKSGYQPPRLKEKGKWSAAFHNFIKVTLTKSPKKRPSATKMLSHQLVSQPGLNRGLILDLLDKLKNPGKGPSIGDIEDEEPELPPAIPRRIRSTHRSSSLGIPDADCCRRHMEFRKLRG
Nature of the assay: HPK Kinase Activity Assay at 1 mM ATP (TR-FRET). In kind it is biochemical. The note with it: HPK1 kinase 40 nM, 0.5 μM STK1 substrate, read-out: Enzymatic activity IC50. Summed up: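 HPK1 (aa1-346, 40 nM) was preincubated 60 min at room temperature with compound (0–10 μM) in pH 7.0 HEPES/MgCl2 buffer. Reaction ran 120 min at room temperature with 1 mM ATP and 0.5 μM STK1 substrate. Phosphorylation was read as the TR-FRET 665/620 nm ratio, with IC50 from a four-parameter logistic fit.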
(In general: Time-resolved FRET reads energy transfer from a long-lived donor to a nearby acceptor.)

Molecules are shown by their SMILES.

As for `Cc1cc(-c2cnc(N)c(Oc3cnn(CC4CCOCC4)c3)n2)cc2c1CCN(C)C2` [Example 293, 5-(2,5-dimethyl-1,2,3,4-tetrahydroisoquinolin-7-yl)-3-(1-((tetrahydro-2H-pyran-4-yl)methyl)-1H-pyrazol-4-yloxy)pyrazin-2-amine], the IC50 is 37 nM. As to `COc1cnc2[nH]ccc2c1COc1nc(-c2cc(C)c3c(c2)CN(C)CC3)cnc1N` [Example 188, 5-(2,5-dimethyl-1,2,3,4-tetrahydroisoquinolin-7-yl)-3-((5-methoxy-1H-pyrrolo[2,3-b]pyridin-4-yl)methoxy)pyrazin-2-amine], the IC50 is 8.1 nM.

As to `Cc1cc(-c2cnc(N)c(Oc3cnn(CC4(F)CCOCC4)c3)n2)cc2c1CCN(C)C2` [Example 314, 5-(2,5-dimethyl-1,2,3,4-tetrahydroisoquinolin-7-yl)-3-(1-((4-fluoro-tetrahydro-2H-pyran-4-yl)methyl)-1H-pyrazol-4-yloxy)pyrazin-2-amine], the IC50 came out at 4.5 nM. In the case of `Cc1cnc(N)cc1COc1nc(-c2cc(C)c3c(c2)CN(C)CC3)cnc1N` [Example 32, 3-((2-amino-5-methylpyridin-4-yl)methoxy)-5-(2,5-dimethyl-1,2,3,4-tetrahydroisoquinolin-7-yl)pyrazin-2-amine], the half-maximal inhibitory concentration (IC50) amounted to 5.1 nM. For `Cc1cc(-c2cnc(N)c(Oc3cnn(CC(F)(F)F)c3)n2)cc2c1CCN(C)C2` [Example 303, 5-(2,5-dimethyl-1,2,3,4-tetrahydroisoquinolin-7-yl)-3-((1-(2,2,2-trifluoroethyl)-1H-pyrazol-4-yl)oxy)pyrazin-2-amine], the IC50 was determined as 16 nM. For the compound `Cc1cc(-c2cnc(N)c(OCc3ccncc3OC(C)C)n2)cc2c1CCN(C)C2` [Example 30, 5-(2,5-dimethyl-1,2,3,4-tetrahydroisoquinolin-7-yl)-3-((3-isopropoxypyridin-4-yl)methoxy)pyrazin-2-amine], the IC50 is 7.6 nM. Next, `Cc1cc(-c2cnc(N)c(OCc3c(Cl)cccc3Cl)n2)cc2c1CCN(C)C2` [Example 17, 3-((2,6-dichlorobenzyl)oxy)-5-(2,5-dimethyl-1,2,3,4-tetrahydroisoquinolin-7-yl)pyrazin-2-amine]: 231 nM. For the compound `CN1CCc2c(cc(-c3cnc(N)c(OCc4ccnc(N)c4)n3)cc2C(F)(F)F)C1` [Example 271, 3-((2-aminopyridin-4-yl)methoxy)-5-(2-methyl-5-(trifluoromethyl)-1,2,3,4-tetrahydroisoquinolin-7-yl)pyrazin-2-amine], the concentration for half-maximal inhibition (IC50) turned out to be 11 nM. For `CCNc1cc(COc2nc(-c3cc(C)c4c(c3)CN(C)CC4)cnc2N)ccn1` [Example 40, 5-(2,5-dimethyl-1,2,3,4-tetrahydroisoquinolin-7-yl)-3-((2-(ethylamino)pyridin-4-yl)methoxy)pyrazin-2-amine], the IC50 is 29 nM. With `Cc1cc(-c2cnc(N)c(OCc3ccnc(C#Cc4ccncc4)c3)n2)cc2c1CCN(C)C2` [Example 23, 5-(2,5-dimethyl-1,2,3,4-tetrahydroisoquinolin-7-yl)-3-((2-(pyridin-4-ylethynyl)pyridin-4-yl)methoxy)pyrazin-2-amine], the half-maximal inhibitory concentration (IC50) was found to be 137 nM.

`CC#Cc1cc(COc2nc(-c3cc(C)c4c(c3)CN(C)CC4)cnc2N)ccn1` [Example 25, 5-(2,5-dimethyl-1,2,3,4-tetrahydroisoquinolin-7-yl)-3-((2-(prop-1-ynyl)pyridin-4-yl)methoxy)pyrazin-2-amine]: the IC50 amounted to 13 nM.

As to `Cc1cc(-c2cnc(N)c(OCc3ccncc3OC3CC3)n2)cc2c1CCN(C)C2` [Example 149, 3-((3-cyclopropoxypyridin-4-yl)methoxy)-5-(2,5-dimethyl-1,2,3,4-tetrahydroisoquinolin-7-yl)pyrazin-2-amine], the IC50 came to 16 nM. Take `Cc1cc(-c2cnc(N)c(-n3cc(C(=O)N(C)c4ccccc4Cl)cn3)n2)cc2c1CCN(C)C2` [Example 286, 1-(3-amino-6-(2,5-dimethyl-1,2,3,4-tetrahydroisoquinolin-7-yl)pyrazin-2-yl)-N-(2-chlorophenyl)-N-methyl-1H-pyrazole-4-carboxamide]: the IC50 came to 3.6 nM. Regarding `Cc1cc(-c2cnc(N)c(OC3CCc4cnccc43)n2)cc2c1CCN(C)C2` (stereo not shown) [Example 13, 3-(6,7-dihydro-5H-cyclopenta[c]pyridin-5-yloxy)-5-(2,5-dimethyl-1,2,3,4-tetrahydroisoquinolin-7-yl)pyrazin-2-amine], the IC50 was 62 nM. Regarding `Cc1cc(-c2cnc(N)c(Oc3cnn(C4CCN(C)C4)c3)n2)cc2c1CCN(C)C2` (single isomer, unassigned) [Example 280A], the half-maximal inhibitory concentration (IC50) came to 12 nM.

Regarding `Cc1cc(-c2cnc(N)c(-n3cc(C(=O)N(C)C4CCOC4)cn3)n2)cc2c1CCN(C)C2` (stereo not shown) [Example 306, 1-(3-amino-6-(2,5-dimethyl-1,2,3,4-tetrahydroisoquinolin-7-yl)pyrazin-2-yl)-N-methyl-N-(tetrahydrofuran-3-yl)-1H-pyrazole-4-carboxamide], the half-maximal inhibitory concentration (IC50) worked out at 89 nM. `CCn1cc(Oc2nc(-c3cc(C)c4c(c3)CN(C)CC4)cnc2N)cn1` [Example 45, 5-(2,5-dimethyl-1,2,3,4-tetrahydroisoquinolin-7-yl)-3-(1-ethyl-1H-pyrazol-4-yloxy)pyrazin-2-amine]: the IC50 was 15 nM. Take `CNCCN(C)C(=O)c1cnn(-c2nc(-c3cc(C)c4c(c3)CN(C)CC4)cnc2N)c1` [Example 279, 1-(3-amino-6-(2,5-dimethyl-1,2,3,4-tetrahydroisoquinolin-7-yl)pyrazin-2-yl)-N-methyl-N-(2-(methylamino)ethyl)-1H-pyrazole-4-carboxamide]: the IC50 was 19 nM. As for `Cc1cc(-c2cnc(N)c(-n3cc(C(=O)NCCN4CCOCC4)cn3)n2)cc2c1CCN(C)C2` [Example 299, 1-(3-amino-6-(2,5-dimethyl-1,2,3,4-tetrahydroisoquinolin-7-yl)pyrazin-2-yl)-N-(2-morpholinoethyl)-1H-pyrazole-4-carboxamide], the IC50 worked out at 8.9 nM.
